Patent publication US10407381B2 (THE BOARD OF TRUSTEES OF THE UNIVERSITY OF ILLINOIS, priority 2015, dated 2019)
Where two headings read alike, the source gives them in different places.

Key:
5-HT2B [1] = target: T1, 5-HT2B (Homo sapiens, UniProt P41595); conditions: background, reported values; cited from earlier work
Target sequence in this assay (P41595 whole entry, species assumed): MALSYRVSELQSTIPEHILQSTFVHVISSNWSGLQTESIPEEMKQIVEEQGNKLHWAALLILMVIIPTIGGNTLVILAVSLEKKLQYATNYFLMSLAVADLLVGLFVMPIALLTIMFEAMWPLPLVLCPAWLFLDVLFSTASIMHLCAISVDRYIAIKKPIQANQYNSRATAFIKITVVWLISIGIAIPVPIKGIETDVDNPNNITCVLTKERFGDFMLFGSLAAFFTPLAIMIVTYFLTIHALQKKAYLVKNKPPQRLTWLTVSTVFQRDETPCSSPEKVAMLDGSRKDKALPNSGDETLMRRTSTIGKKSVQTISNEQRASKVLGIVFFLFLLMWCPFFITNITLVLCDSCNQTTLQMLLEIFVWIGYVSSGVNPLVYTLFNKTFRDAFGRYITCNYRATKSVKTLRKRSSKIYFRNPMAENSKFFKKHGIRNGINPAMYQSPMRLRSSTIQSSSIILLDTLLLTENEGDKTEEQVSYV

[2] = 10-60 mg/kg; cited from earlier work
5-HT2C receptor = target: T2, 5-HT2C receptor (Homo sapiens, UniProt P28335); conditions: cited from earlier work; for selectivity for 5-HT2C relative to 5-HT2B: 5-HT2C versus 5-HT2B
T2 sequence (P28335 33-458): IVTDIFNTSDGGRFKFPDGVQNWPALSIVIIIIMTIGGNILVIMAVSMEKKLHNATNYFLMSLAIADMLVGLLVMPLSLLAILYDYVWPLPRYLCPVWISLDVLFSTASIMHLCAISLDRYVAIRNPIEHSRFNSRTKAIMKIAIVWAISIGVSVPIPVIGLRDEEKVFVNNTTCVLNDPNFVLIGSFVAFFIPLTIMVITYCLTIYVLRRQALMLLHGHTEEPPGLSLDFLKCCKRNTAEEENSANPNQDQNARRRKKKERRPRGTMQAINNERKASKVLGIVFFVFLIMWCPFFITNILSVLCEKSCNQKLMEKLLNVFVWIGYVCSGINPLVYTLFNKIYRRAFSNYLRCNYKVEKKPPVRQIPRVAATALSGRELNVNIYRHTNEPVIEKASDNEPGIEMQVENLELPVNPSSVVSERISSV

5-HT2A [3] = target: T3, 5-HT2A (Homo sapiens, UniProt P28223); conditions: background, cited from earlier work
Target sequence in this assay (P28223 whole entry, species assumed): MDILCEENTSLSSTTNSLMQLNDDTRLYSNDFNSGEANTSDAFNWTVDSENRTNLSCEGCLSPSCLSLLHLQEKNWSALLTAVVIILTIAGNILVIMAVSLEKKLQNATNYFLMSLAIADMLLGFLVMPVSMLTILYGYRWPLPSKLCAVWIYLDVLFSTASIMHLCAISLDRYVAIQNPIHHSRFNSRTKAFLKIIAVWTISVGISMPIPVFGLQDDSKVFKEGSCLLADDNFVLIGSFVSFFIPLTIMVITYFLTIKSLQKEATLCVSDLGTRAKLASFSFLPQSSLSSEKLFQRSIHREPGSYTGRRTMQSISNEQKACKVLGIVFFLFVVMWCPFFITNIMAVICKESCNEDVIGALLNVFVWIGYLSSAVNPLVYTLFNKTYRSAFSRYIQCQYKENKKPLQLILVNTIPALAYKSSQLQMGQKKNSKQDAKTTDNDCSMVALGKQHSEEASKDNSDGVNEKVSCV

[4] = several animal models; cited from earlier work
5-HT2A [5] = target: T3, 5-HT2A; assay: Calcium flux (FLIPR) assay, human 5-HT2A stably expressed in HEK-293 (Flp-In-293) cells; conditions: for EC50: EC50, nM 5-HT2A, NA = no activity at 10 μM; for EC50 / Emax, % 5-HT 5-HT2A: human 5-HT2A in HEK-293 cells, FLIPR; for Emax, % 5-HT 5-HT2A: normalized to 5-HT
Target sequence in this assay (P28223 whole entry): as the sequence (P28223 whole entry, species assumed) above

human 5-HT2C-INI = target: T4, human 5-HT2C-INI (Homo sapiens, UniProt P28335); assay: Calcium flux (FLIPR) assay, human 5-HT2C-INI stably expressed in HEK-293 (Flp-In-293) cells; conditions: for Emax, % 5-HT 5-HT2C / EC50: human 5-HT2C-INI in HEK-293 cells, FLIPR; for Emax, % 5-HT 5-HT2C: normalized to 5-HT; for EC50: EC50, nM 5-HT2C, NA = no activity at 10 μM
T4 sequence (P28335 33-458): T2 sequence (P28335 33-458)

[6] = clinical trials, compared to the placebo group; cited from earlier work
C57BL/6J mice = assay: Amphetamine-stimulated activity test (open field), schizophrenia-like animal model; conditions: for AMPH-stimulated hyperlocomotion relative to the Veh-AMPH group: 10 or 20 mg/kg i.p., 3 mg/kg amphetamine, distance travelled 16-120 min, p-values<0.035; for dose dependence of suppression of AMPH hyperactivity: 10 versus 20 mg/kg i.p.
5-HT2B [7] = target: T1, 5-HT2B; assay: Calcium flux (FLIPR) assay, human 5-HT2B stably expressed in HEK-293 (Flp-In-293) cells; conditions: human 5-HT2B in HEK-293 cells
Target sequence in this assay (P41595 whole entry): as the sequence (P41595 whole entry, species assumed) above

Compound | selectivity for 5-HT2C relative to 5-HT2B (5-HT2C receptor) | Emax at 5-HT2B (5-HT2B [1]) [%] | Emax, % 5-HT 5-HT2C (human 5-HT2C-INI) | EC50 (5-HT2A [5]) [nM] | Emax, % 5-HT 5-HT2A (5-HT2A [5]) | EC50 (human 5-HT2C-INI) [nM] | AMPH-stimulated hyperlocomotion relative to the Veh-AMPH group (C57BL/6J mice) | dose dependence of suppression of AMPH hyperactivity (C57BL/6J mice) | further results
Cc1cccc(C2CC2CN)c1 (stereo not shown) | 14 fold | – | – | – | – | – | – | – | EC50 (5-HT2B [1]): 65 nM; antidepressant-like effects [2]: moderate antidepressant-like effects; selectivity over 5-HT(2A) (5-HT2C receptor; 5-HT2C versus 5-HT2A): 120 fold; EC50 (5-HT2C receptor; background, reported values): 4.8 nM; EC50 (5-HT2A [3]; reported values): 585 nM
c1cc2c3c(c1)[C@H]1CCC[C@H]1N3CCNC2 [WAY-163909] | – | 40 | – | – | – | – | – | – | preclinical antipsychotic-like activity [4]: good preclinical antipsychotic-like activity; agonist activity at 5-HT2A (5-HT2A [3]; reported): no agonist activity
C[C@H]1CNCCc2ccc(Cl)cc21 [lorcaserin, reference compound] | – | – | (99%) % 5-HT | – | – | – | – | – | Emax (5-HT2A [5]; read-out: 5-HT2A Emax Std. Error): 68%; Emax (human 5-HT2C-INI; read-out: 5-HT2C Emax Std. Error): 99%; incidence of cardiac valve disorders [6]: higher incidence of cardiac valve disorders
NCC1CC1c1cc(F)ccc1OCCF (single isomer, unassigned; (+)) [(+)-Example 10, (+)-(2-(5-Fluoro-2-(2-fluoroethoxy)phenyl)cyclopropyl)methanamine] | – | – | (89%) % 5-HT | 359 | (76%) % 5-HT | 3.4 | significantly reduced | not differentiated by dose | influence on spontaneous activity, compound alone (C57BL/6J mice; 20 mg/kg i.p., 20-Veh groups): little influence
NCC1CC1c1cc(Cl)ccc1OCCF (single isomer, unassigned; (+)) [(+)-Example 19, (+)-(2-(5-Chloro-2-(2-fluoroethoxy)phenyl)cyclopropyl)methanamine] | – | – | (86%) % 5-HT | 1480 | (35%) % 5-HT | 32 | significantly reduced | not differentiated by dose | EC50 (5-HT2B [7]; EC50, nM 5-HT2B, NA = no activity at 10 μM): 632 nM; Emax, % 5-HT 5-HT2B (5-HT2B [7]; normalized to 5-HT): (31%) % 5-HT
Clc1cccc(COc2cncc(N3CCNCC3)n2)c1 [CP-809,101] | about 600 fold | 57 | – | – | – | – | – | – | Emax at 5-HT2C (5-HT2C receptor; background, reported values): 93%
